The text below walks through data of PubChem BioAssay (NCI).

Values joined by “and” are separate entries in the source; they are usually repeats but may differ in a detail not shown here. Equal entries are not always repeated.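 Exposure lasted 48 hours, with cells grown in 96-well plates and compounds tested at five concentrations. Abbreviation: GI50, concentration required for 50% inhibition of growth. TGI: concentration producing complete growth inhibition.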

Test systems include SK-OV-3 ovarian; U251 CNS; TK-10 renal; UACC-257 melanoma; SW-620 colon; MALME-3M melanoma; COLO 205 colon; T-47D breast; HOP-92 NSCLC; ACHN renal.
Common to all, as to assay: growth of human tumour cells (NCI), 48 h

Take `Cc1c(Cn2c(C)nc3c(C(=O)O)cc(N4CCOCC4)cc32)cccc1C(F)(F)F`: the GI50 is 77.5 µM in the assay with SK-OV-3 ovarian; 49.5 µM in the assay with U251 CNS; 34 µM with TK-10 renal; 61.1 µM with UACC-257 melanoma; 45.5 µM in the assay with SW-620 colon; greater than 69.7 µM in the assay with MALME-3M melanoma. Moreover, the GI50 with COLO 205 colon was 49.2 µM; with T-47D breast, 36.7 µM; in the assay on HOP-92 NSCLC, 14.1 µM; in the assay on ACHN renal it was 8.73 µM. In addition, the TGI with SK-OV-3 ovarian, with U251 CNS, in the assay with TK-10 renal, with UACC-257 melanoma, in the assay with SW-620 colon and in the assay on MALME-3M melanoma was greater than 100 µM in each case. For the same molecule, the TGI in the assay on COLO 205 colon, with T-47D breast, in the assay on HOP-92 NSCLC and in the assay on ACHN renal was greater than 100 µM each time.
Turning to `Cc1c(CN2CCN(C(=O)[C@H](C)O)CC2)sc2c(N3CCOCC3)nc(-c3cnc(N)nc3)nc12`, the GI50 is 0.123 µM and 0.112 µM with SK-OV-3 ovarian; 1.05 µM and 0.328 µM in the assay on U251 CNS; 0.191 µM and 0.131 µM in the assay on TK-10 renal; 0.31 µM and 0.132 µM with UACC-257 melanoma; 0.473 µM and 0.285 µM in the assay with SW-620 colon; 0.0506 µM in the assay on MALME-3M melanoma. Moreover, the GI50 in the assay with COLO 205 colon is 0.224 µM and 0.233 µM; in the assay on T-47D breast, 0.0145 µM and 0.0269 µM; in the assay with HOP-92 NSCLC, 0.143 µM and 0.0181 µM; with ACHN renal, 0.203 µM and 0.145 µM. Moreover, the TGI in the assay on SK-OV-3 ovarian was 1.13 µM and 0.573 µM; in the assay with U251 CNS, greater than 35.8 µM; in the assay on TK-10 renal it was 3.51 µM and 0.825 µM; in the assay on UACC-257 melanoma, 3.76 µM and 0.751 µM; with SW-620 colon it was greater than 100 µM; in the assay on MALME-3M melanoma, 0.847 µM and 0.414 µM. Further, the TGI in the assay with COLO 205 colon is > 5.47 µM and 9.5 µM; in the assay on T-47D breast, 0.332 µM and 0.175 µM; in the assay with HOP-92 NSCLC, 0.8 µM and 0.108 µM.
For the molecule `CC1=C(C#N)C23C(=O)N(c4ccccc4)C(=O)C2=C(O)C=CC3(O)N1Cc1ccc(Cl)cc1Cl` (centres undefined), the GI50 in the assay with SK-OV-3 ovarian is 11.2 µM; in the assay with U251 CNS, 2.86 µM; with TK-10 renal, 2.79 µM; in the assay with UACC-257 melanoma, 13.2 µM; in the assay on SW-620 colon it was 2.07 µM; in the assay on MALME-3M melanoma, 3.14 µM. The GI50 in the assay on COLO 205 colon is 4.11 µM; in the assay on T-47D breast, 2.93 µM; in the assay on HOP-92 NSCLC, 3.02 µM; in the assay with ACHN renal, 12.6 µM. The TGI was 23.2 µM in the assay on SK-OV-3 ovarian; 11.3 µM with U251 CNS; 11.9 µM with TK-10 renal; 27 µM in the assay on UACC-257 melanoma; 4.29 µM in the assay with SW-620 colon; 9.95 µM in the assay on MALME-3M melanoma. Moreover, the TGI with COLO 205 colon turned out to be 14.4 µM; in the assay on T-47D breast it was 14.6 µM; in the assay with HOP-92 NSCLC, 13.3 µM; in the assay on ACHN renal it was 25.2 µM.
As for `Cc1ccc(OCC2CO2)c(Br)c1` (centres undefined), the TGI is 58.5 µM in the assay on SK-OV-3 ovarian; 32.6 µM in the assay on U251 CNS; greater than 100 µM with TK-10 renal; greater than 100 µM in the assay with UACC-257 melanoma; 33 µM in the assay on SW-620 colon; greater than 100 µM in the assay with MALME-3M melanoma. Besides, the TGI in the assay with COLO 205 colon was 32.3 µM; in the assay with T-47D breast, greater than 100 µM; in the assay with HOP-92 NSCLC it was 36.5 µM; with ACHN renal, 21.2 µM.
In the case of `CCC(CC)n1cnc2c(-c3cnc(N)cn3)nc(N3CC4CCC(C3)O4)nc21`, the GI50 with SK-OV-3 ovarian is 0.142 µM; in the assay with U251 CNS, 1.3 µM; in the assay on TK-10 renal, 0.168 µM; in the assay with UACC-257 melanoma, 0.289 µM; in the assay on SW-620 colon, 0.76 µM; in the assay with MALME-3M melanoma, 0.0472 µM. Also, the GI50 in the assay on COLO 205 colon was 0.269 µM; in the assay on T-47D breast, 0.0233 µM; with HOP-92 NSCLC, 0.013 µM; in the assay with ACHN renal, 0.324 µM. In addition, the TGI is 0.789 µM with SK-OV-3 ovarian; greater than 100 µM with U251 CNS; 5.15 µM in the assay on TK-10 renal; 4.07 µM in the assay on UACC-257 melanoma; greater than 100 µM in the assay with SW-620 colon; 0.688 µM in the assay with MALME-3M melanoma. Besides, the TGI in the assay on COLO 205 colon was greater than 83 µM; in the assay with T-47D breast it was 0.217 µM; in the assay on HOP-92 NSCLC, 0.145 µM; in the assay with ACHN renal, greater than 100 µM.
As for `O=C(c1c(F)c(F)c(F)c(F)c1F)c1c(F)c(F)c(F)c(F)c1F`, the TGI in the assay with SK-OV-3 ovarian came to 5.57 µM; in the assay on U251 CNS, 2.41 µM; in the assay on TK-10 renal it was 2.47 µM; with UACC-257 melanoma, 4.65 µM; in the assay with SW-620 colon, 60.6 µM; with MALME-3M melanoma it was 3.23 µM. The TGI was 3.28 µM with COLO 205 colon, greater than 100 µM in the assay on T-47D breast, 3.43 µM with HOP-92 NSCLC and 3.09 µM with ACHN renal.
For `CCOC(=O)c1[nH]c2cc(Cl)ccc2c1[C@@H](C(=O)NC(C)(C)C)N(CC)C(=O)CCCCC#Cc1cccc2c1CN(C1CCC(=O)NC1=O)C2=O` (some centres undefined), the GI50 with SK-OV-3 ovarian was 0.694 µM; in the assay with U251 CNS it was 1.84 µM; in the assay on TK-10 renal it was 2.65 µM; in the assay on UACC-257 melanoma, 3.05 µM; in the assay with SW-620 colon it was less than 0.01 µM; in the assay on MALME-3M melanoma, less than 0.01 µM. The GI50 was 0.0308 µM in the assay on COLO 205 colon, less than 0.01 µM in the assay with T-47D breast, less than 0.01 µM with HOP-92 NSCLC and 1.42 µM in the assay on ACHN renal. Moreover, the TGI was 16.9 µM in the assay with SK-OV-3 ovarian; 18.1 µM in the assay on U251 CNS; 16.1 µM in the assay on TK-10 renal; greater than 87.5 µM in the assay on UACC-257 melanoma; greater than 100 µM in the assay on SW-620 colon; 0.456 µM in the assay on MALME-3M melanoma. The TGI with COLO 205 colon was 2.53 µM; in the assay with T-47D breast, 7.59 µM; with HOP-92 NSCLC it was less than 0.0238 µM; with ACHN renal, 13.3 µM.
Take `CSc1ccc(C2=NN(C(C)=O)C(c3ccc(-c4cc(Cl)c(Cl)cc4Cl)o3)C2)cc1` (centres undefined): the GI50 in the assay with SK-OV-3 ovarian was 16.7 µM; in the assay on U251 CNS it was 16.9 µM; in the assay with TK-10 renal it was 24.8 µM; in the assay with UACC-257 melanoma, 22.8 µM; in the assay with SW-620 colon it was 18.5 µM; with MALME-3M melanoma it was 19.5 µM. Moreover, the GI50 in the assay with COLO 205 colon was 16.8 µM; in the assay with T-47D breast it was 11.9 µM; in the assay with HOP-92 NSCLC it was 11.2 µM; with ACHN renal, 15.8 µM. The TGI was 38.8 µM with SK-OV-3 ovarian; 30.6 µM in the assay on U251 CNS; 50.3 µM in the assay with TK-10 renal; 42.7 µM with UACC-257 melanoma; 33.2 µM in the assay on SW-620 colon; 39.9 µM in the assay on MALME-3M melanoma. Further, the TGI in the assay on COLO 205 colon was determined as 32.1 µM; in the assay on T-47D breast it was 37.2 µM; in the assay on HOP-92 NSCLC, 23.6 µM; with ACHN renal it was 29.9 µM.
